Results reported in ChEMBL document CHEMBL6092171, “Discovery of Propionic Acid Derivatives with a 5-THIQ Core as Potent and Orally Bioavailable Keap1-Nrf2 Protein-Protein Interaction Inhibitors for Acute Kidney Injury” (J Med Chem, 2024).

Columns and labels:
Type in all cases: ADME, organism-based
[1] = AUC (0 to t) in Sprague-Dawley rat at 1 mg/kg, iv measured upto 24 hrs by LC-MS/MS analysis; settings: in vivo
[2] = AUC (0 to t) in Sprague-Dawley rat at 5 mg/kg, po measured upto 24 hrs by LC-MS/MS analysis; settings: in vivo
[3] = AUC (0 to infinity) in Sprague-Dawley rat at 1 mg/kg, iv measured upto 24 hrs by LC-MS/MS analysis; settings: in vivo
[4] = AUC (0 to infinity) in Sprague-Dawley rat at 5 mg/kg, po measured upto 24 hrs by LC-MS/MS analysis; settings: in vivo
[5] = MRT (0 to t) in Sprague-Dawley rat at 1 mg/kg, iv measured upto 24 hrs by LC-MS/MS analysis; settings: in vivo
[6] = MRT (0 to t) in Sprague-Dawley rat at 5 mg/kg, po measured upto 24 hrs by LC-MS/MS analysis; settings: in vivo
[7] = MRT (0 to infinity) in Sprague-Dawley rat at 1 mg/kg, iv measured upto 24 hrs by LC-MS/MS analysis; settings: in vivo
[8] = MRT (0 to infinity) in Sprague-Dawley rat at 5 mg/kg, po measured upto 24 hrs by LC-MS/MS analysis; settings: in vivo
[9] = Half life in Sprague-Dawley rat at 1 mg/kg, iv measured upto 24 hrs by LC-MS/MS analysis; settings: in vivo
[10] = Half life in Sprague-Dawley rat at 5 mg/kg, po measured upto 24 hrs by LC-MS/MS analysis; settings: in vivo
[11] = Tmax in Sprague-Dawley rat at 5 mg/kg, po measured upto 24 hrs by LC-MS/MS analysis; settings: in vivo
[12] = Cmax in Sprague-Dawley rat at 1 mg/kg, iv measured upto 24 hrs by LC-MS/MS analysis; settings: in vivo
[13] = Cmax in Sprague-Dawley rat at 5 mg/kg, po measured upto 24 hrs by LC-MS/MS analysis; settings: in vivo
[14] = Volume of distribution in Sprague-Dawley rat at 1 mg/kg, iv measured upto 24 hrs by LC-MS/MS analysis; settings: in vivo, read-out: Vz
[15] = Volume of distribution in Sprague-Dawley rat at 5 mg/kg, po measured upto 24 hrs by LC-MS/MS analysis; settings: in vivo
[16] = Apparent clearance during terminal phase in Sprague-Dawley rat at 5 mg/kg, po measured upto 24 hrs by LC-MS/MS analysis; settings: in vivo
[17] = Oral bioavailability in Sprague-Dawley rat at 5 mg/kg measured upto 24 hrs by LC-MS/MS analysis; settings: in vivo
[18] = Drug distribution in Sprague-Dawley rat kidney at 5 mg/kg, po; settings: in vivo

AUC(0-t) at 24 h [1]: 267 ng·h/mL
AUC(0-t) at 24 h [2]: 265 ng·h/mL
AUC(0-inf) [3]: 268 ng·h/mL
AUC(0-inf) [4]: 266 ng·h/mL
MRT last at 24 h [5]: 0.39 h
MRT last at 24 h [6]: 1.77 h
MRT inf [7]: 0.44 h
MRT inf [8]: 1.85 h
half-life [9]: 1.19 h
half-life [10]: 1.36 h
Tmax [11]: 0.29 h
Cmax [12]: 1640 ng/mL
Cmax [13]: 186 ng/mL
Vd [14]: 6.49 L/kg
Vz [15]: 46.52 L/kg
CL/F [16]: 383 mL/min/kg
bioavailability [17]: 20%
Drug uptake [18]: Active
Structure (SMILES): COc1cc(C(CC(=O)O)c2cccc3c2CCN(C(=O)c2ccc(OC(C)C)cc2Cl)C3)cc2nnn(C)c12 (stereo not drawn)
